Toxicity and ED50 data for 2 molecules are collected here from ChEMBL document CHEMBL1122855, “Antimalarial agents. 1. alpha-Santonin-derived cyclic peroxide as potential antimalarial agent” (1985).

Values after ≈ are worked out from the molar mass of the structure shown. Some results are limits rather than exact numbers.

Assay [1] deals with Mus musculus. The assay is described as follows: In vivo toxicity against chloroquine-resistant (Smith) isolates of Plasmodium berghei in mice (Mus musculus). The assay is classed as functional.
The subject of assay [2] is Mus musculus. The assay can be described thus: In vitro antimalarial activity against chloroquine-resistant (Smith) isolates of Plasmodium falciparum at dose 160 mg/kg in mice (Mus musculus). The assay is classed as functional.

In the assay with Mus musculus [1], `CC1=C[C@H]2C[C@]3(C)CC[C@H]4[C@H](C)C(=O)O[C@@H]4C13OO2` (single isomer, unassigned) displayed a Toxicity of 640 mg/kg. The same molecule came in with an ED50 with Mus musculus [2] of 0.72859 µg/mL (≈ 2.76 µM).
In the case of `C[C@@H]1CC[C@H]2[C@@H](C)C(=O)O[C@@H]3O[C@@]4(C)CC[C@@H]1[C@]32OO4` [ARTEMISININ], the ED50 with Mus musculus [2] is less than 0.0034 µg/mL.
